Entries after “also recorded” stand apart in the source; their conditions may differ. Read-outs that look alike come from different tables or passages of the source.
Columns and labels:
[1] = tested on: mitochondria (MitoTracker) or ER; assay: Colocalization of eGFP-fused myosin 19 tail constructs with mitochondria (MitoTracker) or ER (SRβ); type: cell-based; settings: myosin 19^824-970-eGFP and mutant variants ectopically expressed
Procedure: Generation of peGFP-myosin 19 mutations and truncations were performed using high fidelity PCR enzymes with phosphorylated primers (Phusion, T4 PNK, NEB). We used peGFP-myosin 19 (peGFP-N1b was kindly provided by Dr. Ayoub (Technion-IIT)) or peGFP-myosin 19 tail (aa 824-970) as template with a single exception for peGFP-myosin 19^860-890 where peGFP-myosin 19^860-970 was used. The products were ligated using T4 ligase (NEB, Promega) and sequenced.
(§1) Transfections were performed using Polyethylenimine (PEI). Adherent U2OS cells were plated a day before transfection on plastic or glass bottom dishes and allowed to adhere overnight (ON). Plasmid DNA and PEI were diluted separately in 150 mM NaCl, combined and complex formation was allowed for 25 min at RT before addition to the cells and incubation ON. Hoechst 33342 (0.75 μg/ml Sigma), MitoTracker (30 nM, Molecular probes) and Propidium iodide (1 μg/ml, Sigma) were added 15 min prior to imaging. HaloTag constructs were stained by incubating the cells with HaloTag TMR Ligand ON (25 nM, Promega). The cells were imaged using InCell Analyzer 2000, Confocal Zeiss LSM 700 or Confocal Zeiss LSM 710 in an environmental chamber.
In accordance to the finding in the cells (FIG. 2A), Myo19^860-890-eGFP was co-purified with mitochondria, however unlike the endogenous Myo19, it appears to be more sensitive to extraction by salt. Carbonate completely extracts Myo19^860-890-eGFP from purified mitochondria, similarly to endogenous Myo19 (FIG. 22). The difference in salt sensitivity may be due to insufficient length of the motif to be fully anchored in the membrane as in the WT endogenous protein. Another possibility is that a certain part of Myo19^860-890-eGFP was correctly anchored, where the rest was present there nonspecifically, e.g. through dimerization of eGFP. […] To further explore the OMM targeting the motif sequence was examined. Although there is no consensus sequence targeting proteins to the OMM, it was shown that a moderately hydrophobic motif flanked by positive residues is required for OMM localization. […]

[2] = biological target: lipid SUVs with a phospholipid composition similar to the OMM (55% PC, 30% PE, 13% PI, 2% DOPS); assay: Equilibrium binding of peptides to OMM mimicking vesicles by fluorescence anisotropy
Procedure: (§2) Phosphatidylcholine (PC, Sigma), Phosphatidylethanolamine (PE, Sigma), Phosphatidylinositol (PI, Sigma) and Dioleoyl phosphatidylserine (DOPS, Avanti) were mixed in chloroform and evaporated under nitrogen. The vesicles were then resuspended in 40 mM Hepes pH 7.1, 150 mM NaCl and subjected to 10 freeze-thaw cycles in liquid nitrogen and kept in −80° C. The vesicles were thawed and sonicated for five min at low intensity; insoluble material was removed by centrifugation at 100,000×gav for 20 min. Vesicles were used within two days after sonication.
(§3) Equilibrium binding by Fluorescence Anisotropy (FA) measurements was performed with PCI spectrofluorimeter (ISS, Champaign, Ill.) designed as T-format for simultaneous acquisition on two emission channel monochromators equipped with automatic polarizers. Samples were equilibrated (60 min, RT) and then measurements were done with intrinsic fluorescence of the peptide with λex=280 nm using vertical polarized light and the emitted vertical and horizontal polarized light was monitored at 90° with double emission monochromators at λem=325 nm. (i-factor for correction of the different gain between the dual PMT detectors was calculated as described by the instrument manufacturer. The binding model for a simple bimolecular reaction was:
[formula] [formula] Under the condition of Ptot<<KD then the general solution for this equilibrium binding scheme is in the form of the following quadratic equation:
[formula] Ptot is monitoring species; Vtot is titrating species and [PV] is the bound species. The total fluorescence and anisotropy were fitted globally (Origin Lab 9.0) according to Otto et al. Biophys J, 1994. 67(6): p. 2511-21.
Myo19 peptides were purchased as crude preparations and resuspended in 10% Acetonitrile (ACN) and either 0.1% (for Myo19^851-895) or 0.01% (for Myo19^858-883 and Myo19^858-RK883SS) trifluoroacetic acid (TFA). The peptides were then loaded on a C-18 column (Waters) and separated by reverse phase chromatography. Peaks were analyzed by MALDI-TOF and verified to be of the right molecular weight corresponding to the peptide size. The peptides were then dried and resuspended in either 5% DMF (Myo19^858-883 and Myo19^RK883SS) or 16% DMF (Myo19^851-895) in binding buffer (40 mM Hepes pH 7.1, 150 mM NaCl). Myo19^851-895, Myo19^858-883, Myo19^858-RK883SS peptides were from GL Biochem (Shanghai, China). Zeta1 was from Sigma (Saint Louis, Mo., USA).
To characterize Myo19 membrane binding motif, the binding of a synthetic peptide representing Myo19 residues 851-895 (SEQ ID NO: 12, Table 3) to lipid SUVs (Small unilamellar vesicles) with a phospholipid composition similar to the OMM (55% PC, 30% PE, 13% PI, 2% DOPS (de Kroon et al., 1997)) was tested. Binding was followed via fluorescence anisotropy (FA) relying on two tryptophan residues that are present in the peptide. […] Equilibrium binding of Myo19 peptide to vesicles was monitored by titrating peptide versus increasing vesicles concentration. […] Therefore, to account for the FTI change during the FA measurements, global fitting to both signals arising from peptide binding to vesicles to compensate for the change in fluorescence yield during FA measurements was applied. […] In-vitro binding of a hydrophilic peptide Zeta1 (SEQ ID NO:15, Table 3), was much weaker (˜2.5 folds) compared to the Myo19 peptide (124.4±18.7 μM), supporting the notion that Myo19-OMM binding is mediated by hydrophobic interactions (FIG. 23). Although our newly identified membrane motif is essential and sufficient for OMM localization in cells, the cellular specificity may be achieved by unique, yet unidentified cytosolic or others mitochondrial components.

[3] = biological target: ER mimicking vesicles (20% PE, 66 & PC, 9% PI, 3% DOPS); assay: Equilibrium binding of peptides to ER mimicking vesicles by fluorescence anisotropy; settings: FA/FTI global fit; peptide concentrations 4 μM; N=1; read-out: affinity to ER mimicking vesicles
Procedure: as §2, §3
[formula] […]

[4] = tested on: Myo19-eGFP expressing U2OS cells; assay: Myo19 foci formation / translocation to cell periphery in Myo19-eGFP expressing cells treated with cytoskeleton interfering drugs; type: cell-based
Procedure: Cells were rinsed once and incubated in starvation medium (Glucose free DMEM supplemented with 20 mM Hepes-KOH pH 7.4, 5 mg/ml BSA, 100 U/ml penicillin, 100 μg/ml streptomycin and 0.25 μg/ml amphotericin B). Cytoskeleton interfering drugs (final concentration: 0.2 μM Latrunculin B or 0.75 μg/ml Nocodazole) were first diluted in growth media and then added to the cells.
as §1
Mitochondria function as an intracellular biosensor that responds to environmental changes, stress cues and physiological stimuli. Therefore, it is essential to test the function of myosin 19 and its relation to mitochondrial distribution and morphology in cells under starvation conditions as well under drugs, which disrupt cytoskeletal structures. Starvation stress was chosen because it strongly shifts mitochondrial dynamics of fission and fusion, inducing hyperfusion of the mitochondrial network, and that fission and fusion depend on force generation on the mitochondria. Therefore, it was assessed whether or not starvation-induced hyperfusion is accompanied by any differential cellular localization of myosin 19. Myosin 19-eGFP was overexpressed and cells were starved for four hrs. […] The inventors further tested if myosin 19 OMM binding motif is essential for this starvation-induced localization (FIG. 3A, middle two panels). […] This lends further support to the interpretation that myosin 19^Δ860-890-eGFP cannot compete with the endogenous myosin 19 because of its inability to bind the mitochondria. The inventors further assessed whether this transition of myosin 19 to the cell periphery requires myosin 19 motor activity utilizing an overexpression of myosin 19 tail (FIG. 3A, bottom two panels, FIG. 8) and an ATPase dead mutant G 135R (FIG. 9, FIG. 8). […] Indeed, pre-treatment of cells with 0.2 μM Latrunculin B that disrupts actin filaments of the cytoskeleton for 30 min inhibited the starvation-induced translocation of myosin 19 and the mitochondria to the cell periphery (FIG. 3B, FIG. 10). […]

[5] = FA/FTI global fit, peptide concentrations 4 μM, N=1, read-out: affinity to OMM mimicking vesicles

## IIRL*WPLGLVLANTAMGVGSF*QSSLVVWACL (IIRLWPLGLVLANTAMGVGSFQSSLVVWACL) [RK882/3SS, myosin 19 tail-eGFP construct with R882S and K883S in combination]
[1]; listed as SEQ ID NO: 10
  Localization: shift of the intracellular localization of Myo19 to the ER

## EAIIRLWPLGLVLANTAMGVGSFQRK [Myo19^858-883, shorter peptide derived from Myo19 membrane motif]
[2]; [5]
  Kd: 45 ± 14.1 µM
[3]
  Kd: 50.5 ± 22 µM

## C/C1=C/C(=O)O[C@@H]2C[C@@H](CC[C@H](C)/C=C\CC1)O[C@@](O)([C@@H]1CSC(=O)N1)C2 [Latrunculin B]
[4]; 0.2 μM latrunculin B 30 min prior to starvation
  cells showing <2 Myo19 foci: < 30 % of the cells
[4]; 0.2 μM, 30 min pre-treatment, then starvation
  starvation-induced translocation of myosin 19 and the mitochondria to the cell periphery: inhibited

## FRWGKPVGKKRRPVKVYPNGAEDESAEAFPLE [Zeta1, reference compound]
[2]; [5]
  Kd: 124 ± 18.7 µM
[2]; Zeta1 versus Myo19 peptide
  binding weaker compared to the Myo19 peptide: ~2.5 folds

## IIRL*WVLGLVLANTAMGVGSF*QRKLVVWACL (IIRLWVLGLVLANTAMGVGSFQRKLVVWACL) [Peptide P865V, myosin 19 tail-eGFP construct with point mutation P865V]
[1]
  Localization: dual localization to both the ER and the mitochondria; also recorded: ER/Mito-

## EAIIRLWPLGLVLANTAMGVGSFQSS [Myo19^858-RK882/3SS, corresponding ER mutant of the shorter Myo19 peptide]
[2]; [5]
  Kd: 49 ± 17.2 µM

## COC(=O)Nc1nc2ccc(C(=O)c3cccs3)cc2[nH]1 [nocodazole]
[4]; 0.75 μg/ml nocodazole for three hrs, no starvation
  localization of myosin 19 and mitochondria after nocodazole treatment: induced the same altered localization
[4]; nocodazole treatment, complete media conditions
  cells with induced Myo19 foci formation: > 80 % of the cells

## PLQTRLLEAIIRLWPLGLVLANTAMGVGSFQRKLVVWACLQLPRG [Myo19^851-895, synthetic peptide representing Myo19 residues 851-895]
[2]; [NaCl] up to 1 M, peptide and vesicles 35 μM each
  effect of [NaCl] on the magnitude of binding to vesicles: no effect
[2]; global fit of FA and FTI, peptide concentration 35 μM, 40 mM Hepes pH 7.1, 150 mM NaCl, read-out: apparent binding constant KD
  Kd: 281 ± 50 µM

B1: IIRL*WPLGLVLANTAMGVGSF*QRKLVVWACL (protein, UniProt Q96H55 824-970, looked up, fragment)
chain: MACLAAKELDGVEEKHFSQAPCSLSTSPLQTRLLEAIIRLWPLGLVLANTAMGVGSFQRKLVVWACLQLPRGSPSSYTVQTAQDQAGVTSIRALPQGSIKFHCRKSPLRYADICPEPSPYSITGFNQILLERHRLIHVTSSAFTGLG
modifications: eGFP fusion
[1]
  Localization: Mito-
